Experimental data reported in patent US20240067639A1, “SMALL MOLECULES THAT TARGET THE RNA THAT CAUSES ALS” (EXPANSION THERAPEUTICS, INC., priority 2020, published 2024).
Like-named read-outs stand apart in the source and are kept apart here.

Tests used:
[1] = target: Biotin-labeled RNA (target RNA); experiment: BLI affinity measurement (ForteBio Octet RED384); type: binding; details: Table G
[2] = system: RAN translation of (G4C2)66-No ATG-GFP in HEK293T cells; experiment: Cell-based assay of RAN translation inhibition (GFP/mCherry reporter); details: Homo sapiens, HEK-293T, read-out: RANT IC50

Structure (SMILES) | Kd [1] [nM] | IC50 ([2]; Table G, HEK293T) [µM] | IC50 [2] [µM]
Cc1c2ccncc2cc2c3cc(OC[C@H](C)NC(C)C)ccc3n(C)c12 [Compound 283, (S)-1-((5,6-dimethyl-6H-pyrido[4,3-b]carbazol-9-yl)oxy)-N-isopropylpropan-2-amine] | 90 | 2.4 | –
Cc1c2ccncc2cc2c1[nH]c1ccc(OCCN)cc12 [Compound 263, 2-[(5-methyl-6H-pyrido[4,3-b]carbazol-9-yl)oxy]ethanamine] | 610 | > 100 | –
Cc1c2ccncc2cc2c3ccccc3n(CCN3CCOCC3)c12 [Compound 319, 4-(2-(5-methyl-6H-pyrido[4,3-b]carbazol-6-yl)ethyl)morpholine] | 7800 | – | 12
CCN[C@@H](C)COc1ccc2c(c1)c1cc3cnccc3c(C)c1n2C [Compound 275, (2S)-1-(5,6-dimethylpyrido[4,3-b]carbazol-9-yl)oxy-N-ethyl-propan-2-amine] | 62 | 20 | –
COc1ccc2c(c1)c1cc3cnccc3c(C)c1n2CCN1CCOCC1 [Compound 320, 4-(2-(9-methoxy-5-methyl-6H-pyrido[4,3-b]carbazol-6-yl)ethyl)morpholine] | 100000 | – | 1.9
Cc1c2ccnc(C(=O)N[C@H](C)CN(C)C)c2cc2c3cc(OCC(N)=O)ccc3n(C)c12 [Compound 270, 9-(2-amino-2-oxo-ethoxy)-N-[(1R)-2-(dimethylamino)-1-methyl-ethyl]-5,6-dimethyl-pyrido[4,3-b]carbazole-1-carboxamide] | 510 | 0.36 | –
COc1ccc2c(c1)c1cc3cnccc3c(C)c1n2CCN1CCCCC1 [Compound 316, 9-methoxy-5-methyl-6-(2-(piperidin-1-yl)ethyl)-6H-pyrido[4,3-b]carbazole] | 3400 | – | 10
Cc1c2ccncc2cc2c3cc(C(=O)NC[C@H](C)N)ccc3n(C)c12 [Compound 280, (S)—N-(2-aminopropyl)-5,6-dimethyl-6H-pyrido[4,3-b]carbazole-9-carboxamide] | 880 | 35 | –
Cc1c2ccncc2cc2c3cc(OC[C@H]4CCCN4)cc(F)c3n(C)c12 [Compound 265, (R)-7-fluoro-5,6-dimethyl-9-(pyrrolidin-2-ylmethoxy)-6H-pyrido[4,3-b]carbazole] | 720 | > 100 | –
Cc1c2ccnc(C(=O)N[C@H](C)CN(C)C)c2cc2c3ccccc3n(C)c12 [Compound 292, (R)—N-(1-(dimethylamino)propan-2-yl)-5,6-dimethyl-6H-pyrido[4,3-b]carbazole-1-carboxamide] | 5500 | – | 13
Cc1c2ccncc2cc2c3cc(OCC[C@H](C)N)ccc3n(C)c12 [Compound 268, (S)-4-((5,6-dimethyl-6H-pyrido[4,3-b]carbazol-9-yl)oxy)butan-2-amine] | 8700 | 2.9 | –
Cc1c2ccncc2cc2c3cc(OC[C@H](C)NCC(F)F)ccc3n(C)c12 [Compound 279, (2S)—N-(2,2-difluoroethyl)-1-(5,6-dimethylpyrido[4,3-b]carbazol-9-yl)oxy-propan-2-amine] | 250 | 2.4 | –
Cc1c2ccncc2cc2c3ccccc3n(CCN3CCCCC3)c12 [Compound 318, 5-methyl-6-(2-(piperidin-1-yl)ethyl)-6H-pyrido[4,3-b]carbazole] | 6000 | – | 16
Cc1c2ccncc2cc2c3cc(OCC(N)=O)cc(F)c3n(C)c12 [Compound 264, 2-(7-fluoro-5,6-dimethyl-pyrido[4,3-b]carbazol-9-yl)oxyacetamide] | 180 | > 100 | –
Cc1c2ccncc2cc2c3cc(C(=O)N[C@H](C)CN)ccc3n(C)c12 [Compound 282, N-[(1R)-2-amino-1-methyl-ethyl]-5,6-dimethyl-pyrido[4,3-b] carbazole-9-carboxamide] | 140 | 0.67 | –
Cc1c2ccncc2cc2c3cc(OC[C@H](C)Nc4ccccn4)ccc3n(C)c12 [Compound 269, (S)—N-(1-((5,6-dimethyl-6H-pyrido[4,3-b]carbazol-9-yl)oxy)propan-2-yl)pyridin-2-amine] | 1400 | > 100 | –
Cc1c2ccncc2cc2c3ccccc3n(CCN(C)C)c12 [Compound 312, N,N-dimethyl-2-(5-methyl-6H-pyrido[4,3-b]carbazol-6-yl)ethanamine] | 1300 | – | 7.4
COCCN[C@@H](C)COc1ccc2c(c1)c1cc3cnccc3c(C)c1n2C [Compound 278, (2S)-1-(5,6-dimethylpyrido[4,3-b]carbazol-9-yl)oxy-N-(2-methoxyethyl)propan-2-amine] | 83 | 21 | –
CCCN[C@@H](C)COc1ccc2c(c1)c1cc3cnccc3c(C)c1n2C [Compound 277, (2S)-1-(5,6-dimethylpyrido[4,3-b]carbazol-9-yl)oxy-N-propyl-propan-2-amine] | 20 | – | 1.5
Cc1c2ccncc2cc2c3cc(OCCCN4CCCCC4)ccc3n(C)c12 [Compound 266, 5,6-dimethyl-9-(3-(piperidin-1-yl)propoxy)-6H-pyrido[4,3-b]carbazole] | 690 | 7.8 | –
Cc1c2ccnc(C(=O)N[C@H](C)CN(C)C)c2cc2c3cc(OC[C@H](C)N)ccc3n(C)c12 [Compound 271, 9-[(2S)-2-aminopropoxy]-N-[(1R)-2-(dimethylamino)-1-methyl-ethyl]-5,6-dimethyl-pyrido[4,3-b]carbazole-1-carboxamide] | 130 | > 100 | –

The next lines start with results.

Kd [1] [nM] | Structure (SMILES) | IC50 ([2]; Table G, HEK293T) [µM] | IC50 [2] [µM]
2600 | Cc1c2ccncc2cc2c3cc(C(=O)N[C@H](C)CN(C)C)ccc3n(C)c12 [Compound 286, N-[(1R)-2-(dimethylamino)-1-methyl-ethyl]-5,6-dimethyl-pyrido[4,3-b]carbazole-9-carboxamide] | 10 | –
1200 | Cc1c2ccncc2cc2c3cc(Oc4ccncc4)ccc3n(C)c12 [Compound 306, 5,6-dimethyl-9-(pyridin-4-yloxy)-6H-pyrido[4,3-b]carbazole] | 14 | –
5300 | Cc1c2ccncc2cc2c3cc(C(=O)NCC(N)=O)ccc3n(C)c12 [Compound 296, N-(2-amino-2-oxoethyl)-5,6-dimethyl-6H-pyrido[4,3-b]carbazole-9-carboxamide] | 3 | –
5000 | Cc1c2ccncc2cc2c3cc(C(=O)N[C@H](C)CO)ccc3n(C)c12 [Compound 289, (R)—N-(1-hydroxypropan-2-yl)-5,6-dimethyl-6H-pyrido[4,3-b]carbazole-9-carboxamide] | 2.4 | –
6600 | Cc1c2ccncc2cc2c3cc(C(=O)N[C@H](C)C(N)=O)ccc3n(C)c12 [Compound 298, (R)—N-(1-amino-1-oxopropan-2-yl)-5,6-dimethyl-6H-pyrido[4,3-b]carbazole-9-carboxamide] | 1.4 | –
240 | COC(C)(C)CNC(=O)c1ccc2c(c1)c1cc3cnccc3c(C)c1n2C [Compound 299, N-(2-methoxy-2-methylpropyl)-5,6-dimethyl-6H-pyrido[4,3-b]carbazole-9-carboxamide] | 3.8 | –
9600 | COC[C@H](C)NC(=O)c1ccc2c(c1)c1cc3cnccc3c(C)c1n2C [Compound 288, (S)—N-(1-methoxypropan-2-yl)-5,6-dimethyl-6H-pyrido[4,3-b]carbazole-9-carboxamide] | 2 | –
> 20000 | Cc1c2ccnc(C(=O)NCC(N)=O)c2cc2c3ccccc3n(C)c12 [Compound 290, N-(2-amino-2-oxoethyl)-5,6-dimethyl-6H-pyrido[4,3-b]carbazole-1-carboxamide] | 8.3 | –
3000 | Cc1c2ccncc2cc2c3cc(Oc4ccc(N)nc4)ccc3n(C)c12 [Compound 314, 5-((5,6-dimethyl-6H-pyrido[4,3-b]carbazol-9-yl)oxy)pyridine-2-amine] | > 60 | –
970 | Cc1c2ccnc(C(=O)N[C@H](C)CN(C)C)c2cc2c3cc(F)ccc3n(C)c12 [Compound 310, (R)—N-(1-(dimethylamino)propan-2-yl)-9-fluoro-5,6-dimethyl-6H-pyrido[4,3-b]carbazole-1-carboxamide] | 38 | –
1500 | Cc1c2ccncc2cc2c3cc(C(=O)NC[C@H](C)O)ccc3n(C)c12 [Compound 287, N-[(2S)-2-hydroxypropyl]-5,6-dimethyl-pyrido[4,3-b]carbazole-9-carboxamide] | 1.4 | –
1400 | Cc1c2ccncc2cc2c3cc(Oc4cccc(N)n4)ccc3n(C)c12 [Compound 304, 6-((5,6-dimethyl-6H-pyrido[4,3-b]carbazol-9-yl)oxy)pyridin-2-amine] | 5.9 | –
2700 | Cc1c2ccncc2cc2c3cc(C(=O)N[C@@H](C)C(N)=O)ccc3n(C)c12 [Compound 297, (S)—N-(1-amino-1-oxopropan-2-yl)-5,6-dimethyl-6H-pyrido[4,3-b]carbazole-9-carboxamide] | 2.9 | –
8200 | COCC(C)(C)NC(=O)c1ccc2c(c1)c1cc3cnccc3c(C)c1n2C [Compound 302, N-(1-methoxy-2-methylpropan-2-yl)-5,6-dimethyl-6H-pyrido[4,3-b]carbazole-9-carb-oxamide] | 9.1 | –
120 | Cc1c2ccncc2cc2c3cc(C(=O)NC[C@@H](C)O)ccc3n(C)c12 [Compound 285, (R)—N-(2-hydroxypropyl)-5,6-dimethyl-6H-pyrido[4,3-b]carbazole-9-carboxamide] | 0.9 | –
11000 | Cc1c2ccnc(C(=O)NCCN(C)C)c2cc2c3cc(F)ccc3n(C)c12 [Compound 315, N-(2-(dimethylamino)ethyl)-9-fluoro-5,6-dimethyl-6H-pyrido[4,3-b]carbazole-1-carboxamide] | > 100 | –
350 | Cc1c2ccncc2cc2c3cc(C(=O)NC[C@H](C)N(C)C)ccc3n(C)c12 [Compound 300, (S)—N-(2-(dimethylamino)propyl)-5,6-dimethyl-6H-pyrido[4,3-b]carbazole-9-carboxamide] | 8.6 | –
